Structures can show the parent of a compound that is named as a salt.
Each molecule was assayed on arachidonic acid (assay: Arachidonic Acid Antagonism Assay (AAAA)). Details: mice; 100 mg/kg; LD50 of sodium arachidonate.
Type: in vivo, mouse (Charles River male CF-1)
Method: While not necessary to determine arachidonic acid antagonism, the above assay has been modified as follows: Charles River male CF-1 mice weighing […] are treated IV with the test compound dissolved in 1.0% Tween-80 and 0.1% hydrochloric acid in distilled water. 0 2 ml total volume. Fifteen minutes later sodium arachidonate (90% pure) in physiological (normal) […] is injected into the tail vein. The LD50 is measured using the Spearman-Karber method with a log dose interval of 0.05 (N-6). Compounds which elevate the LD50 outside of the 95% confidence interval of the control LD50 are considered to be "active".

Q: `CCN(CC)c1cc(N2CCN(C(=O)[C@@]3(O)CC[C@H]4[C@@H]5CCC6=CC(=O)CC[C@]6(C)[C@H]5CC[C@@]43C)CC2)nc(N(CC)CC)n1` [Example 57] was tested. Which “% of Control LD50” value did it give?
A: Its value is 124%.

Same assay, conditions: mice; IV, 15 min before sodium arachidonate; outside 95% confidence interval of control LD50

Q: For `CN1CCN(c2cc(N3CCN(CC(=O)[C@@]4(O)CC[C@H]5[C@@H]6CCC7=CC(=O)CC[C@]7(C)C6=CC[C@@]54C)CC3)nc(N3CCN(C)CC3)n2)CC1.CS(=O)(=O)O.O` [Example 19, 17α-Hydroxy-21-[4-[2,6-bis(4-methyl 1 piperazinyl)-4-pyrimidinyl]-1-piperazinyl]pregna-4,9(11)-diene-3,20-dione methanesulfonate hydrate], which “arachidonic acid antagonism (elevation of LD50 of arachidonic acid)” value (“arachidonic acid antagonism” below) is on record?
A: The value was “demonstrate arachidonic acid antagonism”.

Q: For `COc1cccc(N2CCN(CC(=O)[C@@]3(O)CC[C@H]4[C@@H]5CCC6=CC(=O)CC[C@]6(C)C5=CC[C@@]43C)CC2)n1.CS(=O)(=O)O` [Example 22, 17α-hydroxy-21-[4-(6-methoxy-2-pyridinyl)-1-piperazinyl]pregna-4,9(11)-diene-3,20-dione monomethanesulfonate], which “arachidonic acid antagonism” value is on record?
A: Its value is “demonstrate arachidonic acid antagonism”.

Q: With `C[C@]12C=CC(=O)C=C1CC[C@@H]1[C@@H]2[C@@H](O)C[C@@]2(C)[C@H]1CC[C@]2(O)C(=O)CN1CCN(c2ccccn2)CC1` [Example 25, 11β,17α-dihydroxy-21-[4-(2-pyridinyl)-1-piperazinyl]-pregna-1,4-diene-3,20-dione dihydrochloride] as the molecule, how does the “arachidonic acid antagonism” value read?
A: The value was “demonstrate arachidonic acid antagonism”.

Q: How did the “arachidonic acid antagonism” value turn out when `C[C@]12CCC(=O)C=C1CC[C@@H]1[C@@H]2[C@H](O)C[C@@]2(C)[C@H]1CC[C@]2(O)C(=O)CN1CCN(c2ccc(F)cc2)CC1` [Example 29, 21-[4-(4-fluorophenyl)-1-piperazinyl]-11α,17α-dihydroxypregn-4-ene-3,20-dione dihydrochloride] was run?
A: The value was “demonstrate arachidonic acid antagonism”.

Q: `C[C@]12CC(=O)[C@H]3[C@@H](CCC4=CC(=O)CC[C@@]43C)[C@@H]1CC[C@@H]2C(=O)CN1CCN(c2ccccn2)CC1.Cl.O` [Example 45, 21-[4-(2-pyridinyl)-1-piperazinyl]pregn-4-ene-3,11,20-trione hydrochloride hydrate] was tested. Which “arachidonic acid antagonism” value did it give?
A: Its value is “demonstrate arachidonic acid antagonism”.

Q: For `COc1ccc(CCN(CC(=O)[C@@]2(O)CC[C@H]3[C@@H]4CCC5=CC(=O)CC[C@]5(C)C4=CC[C@@]32C)Cc2ccc(N(C)C)cc2)cc1OC` [Example 51, 17α-hydroxy-21-[[2-(3,4-dimethoxyphenyl)ethyl]-4-(dimethylamino)phenyl]methyl]amino]pregna-4,9(11)-3,20-dione hydrochloride], which “arachidonic acid antagonism” value is on record?
A: The value was “demonstrate arachidonic acid antagonism”.

Q: `CCN(CC)c1cc(N2CCN(CC(=O)[C@@]3(O)CC[C@H]4[C@@H]5CCC6=CC(=O)CC[C@]6(C)[C@H]5CC[C@@]43C)CC2)nc(N(CC)CC)n1` [Example 53, 21-[4-[2,-bis(diethylamino)-4-pyrimidinyl]-1-piperazinyl]-17α-hydroxypregn-4-ene-3,20-dione] was tested. Which “arachidonic acid antagonism” value did it give?
A: The value was “demonstrate arachidonic acid antagonism”.

Q: With `C[C@]12CCC(=O)C=C1CC[C@@H]1C2=CC[C@@]2(C)[C@H]1CC[C@]2(O)C(=O)CN1CCN(Cc2ccccn2)CC1` [Example 54, 17α-hydroxy-21-[4-(2-pyridinylmethyl)-1-piperazinyl]-pregna-4,9(11)-diene-3,20-dione(E)-2-butenedioate 1:1 salt] as the molecule, how does the “arachidonic acid antagonism” value read?
A: The value was “demonstrate arachidonic acid antagonism”.

Q: For `CCN(CC)c1cc(N2CCN(C(=O)[C@@]3(O)CC[C@H]4[C@@H]5CCC6=CC(=O)CC[C@]6(C)[C@H]5CC[C@@]43C)CC2)nc(N(CC)CC)n1` [Example 57], which “arachidonic acid antagonism” value is on record?
A: Its value is “demonstrate arachidonic acid antagonism”.

Q: `C=CCNc1nc(NCC=C)nc(N2CCN(CC(=O)[C@@]3(O)CC[C@H]4[C@@H]5CCC6=CC(=O)CC[C@]6(C)C5=CC[C@@]43C)CC2)n1.Cl.Cl.O` [Example 60, 17α-hydroxy-21-[4-[4,6-bis(2-propenylamino)-1,3,5-triazin-2-yl]-1-piperazinyl]pregna-4,9(11)-diene-3,20-dione dihydrochloride hydrate] was tested. Which “arachidonic acid antagonism” value did it give?
A: The value was “demonstrate arachidonic acid antagonism”.

Q: How did the “arachidonic acid antagonism” value turn out when `C[C@]12C=CC(=O)C=C1CC[C@@H]1C2=CC[C@@]2(C)[C@H]1CC[C@]2(O)C(=O)CN1CCN(c2cc(N3CCCC3)nc(N3CCCC3)n2)CC1.Cl.Cl.O` [Example 74, 17α-hydroxy-21-[4-[2,6-di-(1-pyrrolidinyl)-4-pyrimidinyl]-1-piperazinyl]pregna-1,4,9(11)-triene-3,20-dione dihydrochloride hydrate] was run?
A: The value was “demonstrate arachidonic acid antagonism”.

Q: With `CCN(CC)c1cc(N2CCN(CC(=O)[C@@]3(O)CC[C@H]4[C@@H]5CCC6=CC(=O)C=C[C@]6(C)C5=CC[C@@]43C)CC2)nc(N(CC)CC)n1.Cl.Cl.O` [Example 75, 21-[4-[2,6-bis(diethylamino)-4-pyrimidinyl]-1-piperazinyl]-17α-hydroxypregna-1,4,9(11)-triene-3,20-dione dihydrochloride hydrate] as the molecule, how does the “arachidonic acid antagonism” value read?
A: Its value is “demonstrate arachidonic acid antagonism”.

Each molecule was assayed on angiogenesis (assay: fertile egg or chick embryo assay of Folkman (inhibition of angiogenesis / tumor growth)). Details: chick embryo; 50 μg/10 μl in the presence of heparin.
Type: in vivo
Method: According to this procedure compounds which are considered to be "active" (i.e, antiangiogenic) give an avascular zone of 4 mm or greater in some embryos when tested at 50 μg/10 μl in the presence of 50 μg/10 μ of heparin.

Q: For `C[C@]12CCC(=O)C=C1CC[C@@H]1[C@@H]2C(=O)C[C@@]2(C)[C@H]1CC[C@]2(O)C(=O)CN1CCN(c2ccccn2)CC1` [Example 20], which “% of Embryos with 4 mm or Greater A vascular Zone” value (from here on “% of Embryos”) is on record?
A: The value was 72%.

Q: For `COc1ccccc1N1CCN(CC(=O)[C@@]2(O)CC[C@H]3[C@@H]4CCC5=CC(=O)CC[C@]5(C)[C@H]4CC[C@@]32C)CC1.Cl.Cl.O` [Example 41, 17α-hydroxy-21-[4-(2-methoxyphenyl)-1-piperazinyl]-pregn-4-ene-3,20-dione dihydrochloride hydrate], which “% of Embryos” value is on record?
A: The value was 80%.

Q: For `C[C@H]1C[C@H]2[C@@H]3CC[C@H]4CC(=O)CC[C@]4(C)C3=CC[C@]2(C)[C@@]1(O)C(=O)CN1CCN(c2ccccn2)CC1.Cl.Cl.O` [Example 44, 17α-hydroxy-16β-methyl-21-[4-(2-pyridinyl)-1-piperazinyl]-5α-pregn-9(11)-ene-3,20-dione dihydrochloride hydrate], which “% of Embryos” value is on record?
A: The value was 75%.

Same assay, conditions: chick embryo; 50 μg/10 μl with heparin; avascular zone 4 mm or greater

Q: For `C[C@]12CCC(=O)C=C1CC[C@@H]1C2=CC[C@@]2(C)[C@H]1CC[C@]2(O)C(=O)CN1CCN(C(=O)c2ccco2)CC1` [Example 6B, 17α-Hydroxy-21-[4-(2-furonylcarbonyl)-1-piperazinyl]-pregna-4,9(11)-diene-3,20-dione], which inhibition of angiogenesis is on record?
A: Its inhibition of angiogenesis is “demonstrate inhibition of angiogenesis”.

Q: For `C[C@]12CCC(=O)C=C1CC[C@@H]1[C@@H]2C(=O)C[C@@]2(C)[C@H]1CC[C@]2(O)C(=O)CN1CCN(c2ccccn2)CC1` [Example 20], which inhibition of angiogenesis is on record?
A: Its inhibition of angiogenesis is “demonstrate inhibition of angiogenesis”.

Q: Which inhibition of angiogenesis does the source give for `COc1ccc(N2CCN(CC(=O)[C@@]3(O)CC[C@H]4[C@@H]5CCC6=CC(=O)CC[C@]6(C)[C@H]5[C@H](OC(=O)CC(C)(C)C)C[C@@]43C)CC2)cc1` [Example 32, 11α,17α-dihydroxy-21-[4-(4-methoxyphenyl)-1-piperazinyl]pregn-4-ene-3,20-dione 11-(3,3-dimethyl 1-butyrate) dihydrochloride] here?
A: The inhibition of angiogenesis was “demonstrate inhibition of angiogenesis”.

Q: For `COc1ccc(N2CCN(CC(=O)[C@@]3(O)CC[C@H]4[C@@H]5C[C@H](C)C6=CC(=O)C=C[C@]6(C)[C@H]5[C@@H](O)C[C@@]43C)CC2)cc1` [Example 33, 11β,17α-dihydroxy-21-[4-(4-methoxyphenyl)-1-piperazinyl]-6α-methylpregna-1,4-diene-3,20-dione dihydrochloride], which inhibition of angiogenesis is on record?
A: Its inhibition of angiogenesis is “demonstrate inhibition of angiogenesis”.

Q: For `COc1ccc(CCNCC(=O)[C@@]2(O)CC[C@H]3[C@@H]4C[C@H](C)C5=CC(=O)C=C[C@]5(C)[C@H]4[C@@H](O)C[C@@]32C)cc1OC` [Example 34, 11β,17α-dihydroxy-21-[[2-(3,4-dimethoxyphenyl)ethyl]-amino]-6α-methylpregna-1,4-diene-3,20-dione hydrochloride], which inhibition of angiogenesis is on record?
A: The inhibition of angiogenesis was “demonstrate inhibition of angiogenesis”.

Q: With `C[C@]12C[C@@H](O)[C@H]3[C@@H](CCC4=CC(=O)CC[C@@]43C)[C@@H]1CC[C@@H]2C(=O)CN1CCN(c2ccccn2)CC1.Cl.Cl` [Example 36, 11α-hydroxy-21-[4-(2-pyridinyl)-1-piperazinyl]pregn-4-ene-3,20-dione, dihydrochloride] as the molecule, how does the inhibition of angiogenesis read?
A: The inhibition of angiogenesis was “demonstrate inhibition of angiogenesis”.

Q: Which inhibition of angiogenesis does the source give for `CCN(CC)c1cc(N2CCN(CC(=O)[C@@]3(O)CC[C@H]4[C@@H]5C[C@H](C)C6=CC(=O)C=C[C@]6(C)C5=CC[C@@]43C)CC2)nc(N(CC)CC)n1` [Example 63, 21-[4-[2,6-bis(diethylamino)-4-pyrimidinyl]-1-piperazinyl]-17α-hydroxy-6α-methylpregna-1,4,9(11)-triene-3,20-dione(E)-2-butenedioate (1:1) salt] here?
A: The inhibition of angiogenesis was “demonstrate inhibition of angiogenesis”.

Q: `C[C@]12CCC(=O)C=C1CC[C@@H]1C2=CC[C@@]2(C)[C@H]1CC[C@]2(O)C(=O)CN1CCN(c2cc(N3CCCC3)nc(N3CCCC3)n2)CC1` [Example 64, 17α-hydroxy-21-[4-[2,6-bis(1-pyrrolidinyl)-4-pyrimidinyl]-1-piperazinyl]pregna-4,9(11)-diene-3,20-dione (E)-2-butenedioate (1:1) salt] was tested. Which inhibition of angiogenesis did it give?
A: The inhibition of angiogenesis was “demonstrate inhibition of angiogenesis”.

Q: Which inhibition of angiogenesis does the source give for `C[C@]12CC[C@@H](O)C[C@H]1CC[C@@H]1[C@@H]2C(=O)C[C@@]2(C)[C@H]1CC[C@]2(O)C(=O)CN1CCN(c2ccccn2)CC1` [Example 99, 3α,17α-dihydroxy-21-[4-(2-pyridinyl)-1-piperazinyl]-5β-pregnane-11,20-dione dihydrochloride hydrate] here?
A: Its inhibition of angiogenesis is “demonstrate inhibition of angiogenesis”.
